Data as given in US7452887B2, “Quinoline- and isoquinoline-based compounds exhibiting ATP-utilizing enzyme inhibitory activity, and compositions, and uses thereof” (Amphora Discovery Corporation, priority 2004, dated 2008).

Tests used:
Assay in all cases: HTS ATP-utilizing enzyme assay, off-chip mobility-shift (Caliper HTS 250)
Assay type in all cases: biochemical
Details in all cases: test compound 10 μM, kinase listed = active (greater than six-sigma from the mean activity of inactive compounds)
DYRK2 = biological target: T1, DYRK2 (Homo sapiens, UniProt Q92630)
T1 sequence (Q92630 1-601): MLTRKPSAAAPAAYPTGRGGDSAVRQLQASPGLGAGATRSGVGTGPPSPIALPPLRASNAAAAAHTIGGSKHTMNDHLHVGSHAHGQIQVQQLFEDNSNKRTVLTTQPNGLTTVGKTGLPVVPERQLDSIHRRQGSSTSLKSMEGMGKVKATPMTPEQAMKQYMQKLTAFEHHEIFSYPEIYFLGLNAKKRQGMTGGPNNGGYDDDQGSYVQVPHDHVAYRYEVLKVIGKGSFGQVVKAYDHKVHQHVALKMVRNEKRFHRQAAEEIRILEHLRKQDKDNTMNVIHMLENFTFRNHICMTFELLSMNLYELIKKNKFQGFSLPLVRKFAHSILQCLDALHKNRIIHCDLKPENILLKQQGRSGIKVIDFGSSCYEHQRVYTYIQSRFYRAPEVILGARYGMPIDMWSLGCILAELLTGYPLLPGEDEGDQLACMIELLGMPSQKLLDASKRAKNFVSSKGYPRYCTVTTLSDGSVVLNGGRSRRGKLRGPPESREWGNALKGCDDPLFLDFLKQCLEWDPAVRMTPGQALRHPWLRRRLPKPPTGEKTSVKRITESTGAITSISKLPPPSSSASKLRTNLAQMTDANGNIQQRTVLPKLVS
Text: (§1) The following procedures describe the reagent and plate preparation for a HTS of an ATP-utilizing enzyme, such as a protein kinase, run in an off-chip mobility-shift assay format. The following provides an HTS protocol for running a protein kinase HTS screen on a Caliper HTS 250 microfluidics system. The following parameters are dependent on the protein kinase used and can be determined by one skilled in the art as part of a typical assay development process. For example, the peptide substrate used can be identified from the current literature, by screening a peptide library of potential protein kinase substrates, or by other applicable means accepted in the field.
(§2) The following table provides typical screen assay parameters appropriate for a Caliper HTS 250 microfluidics system.
(§3) The reagents and buffers listed in the following table are generally applicable for developing and running an HTS screen on a human protein kinase using the Caliper HTS 250 system.
(§4) The following reagents were prepared using the previously described buffers.
(§5) A 2× Master Buffer solution was prepared by combining 200 mL of 1 M HEPES, pH 7.5, 2 mL of 10% Triton X-100, 20 mL of 10% BSA, and 778 mL of H2O.
(§6) A 2.5× Substrate Buffer solution was prepared by combining 177.408 mL of 2× Master Buffer, 0.887 mL of 1 mM peptide-X, and 176.521 mL of H2O.
(§7) A 1.55× Termination Buffer solution was prepared by combining 762.05 mL of 2× Master Buffer, 95.1 mL of 0.5 M EDTA, and 666.94 mL of H2O.
(§8) A TCB Buffer solution was prepared by combining 125 mL of 2× Master Buffer, 10 mL of 0.5 M EDTA, 6.25 mL of 4% coating reagent, 1.01 mL of 100% DMSO, and 107.74 mL H2O.
(§9) A Dye Trough solution was prepared by combining 0.5 μL of peptide-X, and 2,999.5 μL of IX Master Buffer.
(§10) A 1.06× Assay Buffer solution was prepared by combining 205.15 mL of 2× Master Buffer, and 181.92 mL of H2O.
(§11) Assays to determine the kinase inhibitory activity of compounds of the present disclosure were performed using a Caliper HTS 250 microfluidics device, Greiner U-bottom assay plates, a Multidrop for transfer of reagents, and Biomek FX (AMNCBM03) software. Initially, 2.4 μL of a 1 mM solution of a test compound in 100% DMSO was added to a well of the Greiner U-bottom plate. A single Greiner U-bottom plate having 24×16 wells could include multiple test compounds. Next, […] of 1.06× Assay Buffer was added to each well of the assay plate. Using the Biomek FX, 10 μL of 0.5 M EDTA was added by the span-8 to wells, indicated as 100% Control and 2.4 μL of 100% DMSO was added by the span-8 to wells, indicated as 0% Control. Using the Multidrop, 10 μL of 2.5× Enzyme Buffer, followed by 10 μL of 2.5× Substrate Buffer was added to each well of the assay plate. The total reaction volume in each well was 25 μL, and the concentration of the test compound was 10 μM. The assay plate was incubated for 2.5 hrs at 20° C. to 22° C. After the incubation period, using the Multidrop, 45 μL of 1.55× Termination Buffer was added to each well of the assay plate to stop the reaction. The inhibition of the ATP-utilizing enzyme, such as a particular protein kinase, was determined by measuring the ratio of the peptide substrate to phosphorylated product for each well of the assay plate using the Caliper HTS 250 system.
(§12) The use of six-sigma statistical limits represents a conservative method for declaring potential hits among targets. The six-sigma activity, as well as the mean population activity, can be different for each target enzyme. This method has an expected false positive rate, from an in-control measurement process, of one in one million.

MAPKAPK2 = MAPKAPK2 (Homo sapiens, UniProt P49137)
Sequence of MAPKAPK2 (P49137 whole entry): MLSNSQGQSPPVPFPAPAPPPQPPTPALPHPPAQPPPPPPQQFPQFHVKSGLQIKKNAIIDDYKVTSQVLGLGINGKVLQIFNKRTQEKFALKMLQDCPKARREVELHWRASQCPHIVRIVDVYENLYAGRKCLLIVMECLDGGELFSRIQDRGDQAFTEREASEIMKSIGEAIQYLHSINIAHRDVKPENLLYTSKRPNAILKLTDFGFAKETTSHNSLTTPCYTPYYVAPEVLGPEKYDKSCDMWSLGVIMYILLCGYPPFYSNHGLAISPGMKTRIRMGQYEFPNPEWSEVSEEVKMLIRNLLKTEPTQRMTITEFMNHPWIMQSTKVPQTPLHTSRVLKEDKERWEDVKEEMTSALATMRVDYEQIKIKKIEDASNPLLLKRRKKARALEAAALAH
How it was run: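 Phosphorylation of a peptide substrate was quantified by Caliper mobility-shift separation of substrate and product after 2.5 h at 20-22 °C, with compounds tested at 10 μM. Inhibition was normalized to EDTA-quenched (100%) and DMSO (0%) controls; six-sigma thresholds flagged actives.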

KIT = KIT (Homo sapiens, UniProt P10721)
Sequence of KIT (P10721 26-976): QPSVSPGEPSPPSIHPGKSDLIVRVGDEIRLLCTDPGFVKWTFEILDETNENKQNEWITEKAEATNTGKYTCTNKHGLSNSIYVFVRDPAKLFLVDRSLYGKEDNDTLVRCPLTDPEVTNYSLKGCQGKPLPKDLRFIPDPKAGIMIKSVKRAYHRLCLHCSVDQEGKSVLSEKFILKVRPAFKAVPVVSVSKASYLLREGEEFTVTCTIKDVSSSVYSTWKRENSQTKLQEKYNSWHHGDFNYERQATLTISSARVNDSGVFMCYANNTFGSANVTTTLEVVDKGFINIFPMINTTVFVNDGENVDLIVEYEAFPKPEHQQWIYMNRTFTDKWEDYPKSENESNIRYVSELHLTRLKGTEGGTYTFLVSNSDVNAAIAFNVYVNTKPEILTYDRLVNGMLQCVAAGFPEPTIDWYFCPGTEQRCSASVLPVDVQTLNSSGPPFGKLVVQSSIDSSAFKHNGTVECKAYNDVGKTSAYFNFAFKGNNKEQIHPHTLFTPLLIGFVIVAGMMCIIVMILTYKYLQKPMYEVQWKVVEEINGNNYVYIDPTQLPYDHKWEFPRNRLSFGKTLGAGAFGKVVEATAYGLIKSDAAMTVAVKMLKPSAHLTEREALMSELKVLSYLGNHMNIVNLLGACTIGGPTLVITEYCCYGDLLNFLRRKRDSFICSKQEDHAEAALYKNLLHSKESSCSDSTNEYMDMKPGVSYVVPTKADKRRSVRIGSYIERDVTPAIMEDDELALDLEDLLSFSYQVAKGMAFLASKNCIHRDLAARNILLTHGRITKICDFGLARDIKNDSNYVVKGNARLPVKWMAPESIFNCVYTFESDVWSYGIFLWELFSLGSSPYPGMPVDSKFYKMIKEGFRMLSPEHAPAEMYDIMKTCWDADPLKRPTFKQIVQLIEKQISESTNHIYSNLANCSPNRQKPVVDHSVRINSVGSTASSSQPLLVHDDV
Text: as §1, §2, §3, §4, §5, §6, §7, §8, §9, §10, §11, §12

NEK2 = biological target: T2, NEK2 (Homo sapiens, UniProt P51955)
T2 sequence (P51955 1-445): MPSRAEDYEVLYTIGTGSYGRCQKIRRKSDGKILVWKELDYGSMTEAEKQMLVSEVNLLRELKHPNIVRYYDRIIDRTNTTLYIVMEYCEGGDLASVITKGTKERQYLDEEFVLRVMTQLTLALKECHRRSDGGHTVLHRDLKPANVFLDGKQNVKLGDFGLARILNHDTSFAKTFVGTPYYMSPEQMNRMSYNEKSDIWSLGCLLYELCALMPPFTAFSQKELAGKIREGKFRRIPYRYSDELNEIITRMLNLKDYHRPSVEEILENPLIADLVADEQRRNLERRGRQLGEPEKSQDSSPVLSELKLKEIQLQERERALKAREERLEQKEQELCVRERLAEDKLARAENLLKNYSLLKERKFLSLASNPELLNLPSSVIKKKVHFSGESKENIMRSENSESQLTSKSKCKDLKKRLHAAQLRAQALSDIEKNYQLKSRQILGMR
Text: as §1, §2, §3, §4, §5, §6, §7, §8, §9, §10, §11, §12

PRAK = biological target: T3, PRAK (Homo sapiens, UniProt Q8IW41)
T3 sequence (Q8IW41 1-473): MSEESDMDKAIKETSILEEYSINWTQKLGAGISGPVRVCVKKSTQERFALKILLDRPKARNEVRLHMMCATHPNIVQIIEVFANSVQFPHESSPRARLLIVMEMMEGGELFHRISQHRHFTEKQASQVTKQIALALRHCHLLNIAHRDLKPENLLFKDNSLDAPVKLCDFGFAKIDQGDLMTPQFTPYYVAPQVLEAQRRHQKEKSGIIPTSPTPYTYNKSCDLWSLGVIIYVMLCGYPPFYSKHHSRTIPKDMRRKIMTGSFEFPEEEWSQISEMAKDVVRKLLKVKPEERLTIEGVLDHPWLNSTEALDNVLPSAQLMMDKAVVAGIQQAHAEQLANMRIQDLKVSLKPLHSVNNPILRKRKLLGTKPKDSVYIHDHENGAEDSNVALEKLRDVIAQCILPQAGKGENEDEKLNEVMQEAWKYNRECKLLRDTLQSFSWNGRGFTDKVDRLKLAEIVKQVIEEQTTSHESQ
Text: as §1, §2, §3, §4, §5, §6, §7, §8, §9, §10, §11, §12

CHEK2 = CHEK2 (Homo sapiens, UniProt O96017)
Sequence of CHEK2 (O96017 whole entry): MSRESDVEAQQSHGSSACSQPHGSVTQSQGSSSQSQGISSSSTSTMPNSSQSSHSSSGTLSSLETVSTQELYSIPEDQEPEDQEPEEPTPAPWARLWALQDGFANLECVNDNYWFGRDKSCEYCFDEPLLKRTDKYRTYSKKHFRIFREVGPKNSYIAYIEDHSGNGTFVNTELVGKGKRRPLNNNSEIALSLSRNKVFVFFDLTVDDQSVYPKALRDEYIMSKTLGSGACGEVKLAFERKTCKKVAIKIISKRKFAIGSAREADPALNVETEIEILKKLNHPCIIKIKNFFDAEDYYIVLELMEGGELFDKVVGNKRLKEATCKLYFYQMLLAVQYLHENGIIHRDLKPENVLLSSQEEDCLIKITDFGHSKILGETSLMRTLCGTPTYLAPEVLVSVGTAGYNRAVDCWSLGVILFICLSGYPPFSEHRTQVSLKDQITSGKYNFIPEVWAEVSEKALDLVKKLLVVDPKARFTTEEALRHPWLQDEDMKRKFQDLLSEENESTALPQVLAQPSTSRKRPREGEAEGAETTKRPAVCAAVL
Text: as §1, §2, §3, §4, §5, §6, §7, §8, §9, §10, §11, §12

C-TAK1 = C-TAK1 (Homo sapiens, UniProt P27448)
Sequence of C-TAK1 (P27448 whole entry): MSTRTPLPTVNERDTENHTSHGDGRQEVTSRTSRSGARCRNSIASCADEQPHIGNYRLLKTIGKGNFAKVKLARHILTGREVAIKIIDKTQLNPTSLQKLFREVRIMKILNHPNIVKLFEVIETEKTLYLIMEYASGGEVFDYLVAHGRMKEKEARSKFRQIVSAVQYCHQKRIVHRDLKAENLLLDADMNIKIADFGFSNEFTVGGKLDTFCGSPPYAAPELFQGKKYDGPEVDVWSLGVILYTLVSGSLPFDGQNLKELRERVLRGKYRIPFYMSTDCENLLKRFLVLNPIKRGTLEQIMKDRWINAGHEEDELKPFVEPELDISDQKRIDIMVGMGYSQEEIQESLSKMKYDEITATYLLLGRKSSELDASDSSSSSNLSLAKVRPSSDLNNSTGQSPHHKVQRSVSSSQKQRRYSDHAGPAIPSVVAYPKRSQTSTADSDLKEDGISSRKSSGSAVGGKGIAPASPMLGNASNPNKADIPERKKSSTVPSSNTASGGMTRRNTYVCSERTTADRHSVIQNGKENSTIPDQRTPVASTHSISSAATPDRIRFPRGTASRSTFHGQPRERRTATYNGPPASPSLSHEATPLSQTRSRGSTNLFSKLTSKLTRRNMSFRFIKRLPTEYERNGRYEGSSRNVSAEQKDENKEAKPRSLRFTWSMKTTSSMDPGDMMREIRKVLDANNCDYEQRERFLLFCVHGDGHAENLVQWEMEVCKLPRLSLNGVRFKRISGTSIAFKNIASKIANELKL
Text: as §1, §2, §3, §4, §5, §6, §7, §8, §9, §10, §11, §12

SMILES	Activity (DYRK2)	Activity (MAPKAPK2)	Activity (KIT)	Activity (NEK2)	Activity (PRAK)	Activity (CHEK2)	Activity (C-TAK1)
COc1ccc(-c2ccc3nccc(Nc4ccc(N5CCN(CCCO)CC5)cc4)c3c2)cc1 [3-(4-(4-(6-(4-methoxyphenyl)quinolin-4-ylamino)phenyl)piperazin-1-yl)propan-1-ol]	DYRK2	MAPKAPK2					
CN(C)C1CCN(c2ccc(Nc3ccnc4ccc(-c5ccc(C#N)cc5)cc34)cc2)CC1 [4-(4-(4-(4-(dimethylamino)piperidin-1-yl)phenylamino)quinolin-6-yl)benzonitrile]			KIT				
N#Cc1ccc(-c2ccc3nccc(Nc4ccc(C5CCNCC5)cc4)c3c2)cc1 [4-(4-(4-(piperidin-4-yl)phenylamino)quinolin-6-yl)benzonitrile]			KIT				
COc1ccc(-c2ccc3nccc(Nc4ccc(N5CCN(C)CC5)cc4)c3c2)cc1OC [6-(3,4-dimethoxyphenyl)-N-(4-(4-methylpiperazin-1-yl)phenyl)quinolin-4-amine]	DYRK2	MAPKAPK2		NEK2	PRAK		
CCOc1cccc(-c2ccc3nccc(Nc4ccc(N5CCN(C)CC5)cc4)c3c2)c1 [6-(3-ethoxyphenyl)-N-(4-(4-methylpiperazin-1-yl)phenyl)quinolin-4-amine]		MAPKAPK2		NEK2	PARK	CHEK2	
COc1cccc(-c2ccc3nccc(Nc4ccc(N5CCN(C)CC5)cc4)c3c2)c1 [6-(3-methoxyphenyl)-N-(4-(4-methylpiperazin-1-yl)phenyl)quinolin-4-amine]	DYRK2			NEK2	PRAK		
CCSc1ccc(-c2ccc3nccc(Nc4ccc(N5CCN(C)CC5)cc4)c3c2)cc1 [6-(4-(ethylthio)phenyl)-N-(4-(4-methylpiperazin-1-yl)phenyl)quinolin-4-amine]		MAPKAPK2		NEK2	PRAK		C-TAK1
Cc1cc(-c2ccc3nccc(Nc4ccc(N5CCN(C)CC5)cc4)c3c2)ccc1F [6-(4-fluoro-3-methylphenyl)-N-(4-(4-methylpiperazin-1-yl)phenyl)quinolin-4-amine]		MAPKAPK2		NEK2	PRAK		C-TAK1
COc1ccc(-c2ccc3nccc(Nc4ccc(N5CCN(C)CC5)cc4)c3c2)cc1 [6-(4-methoxyphenyl)-N-(4-(4-methylpiperazin-1-yl)phenyl)quinolin-4-amine]	DYRK2	MAPKAPK2		NEK2	PRAK		
CN1CCN(c2ccc(Nc3ccnc4ccc(-c5cccc(-c6ccccc6)c5)cc34)cc2)CC1 [6-(biphenyl-3-yl)-N-(4-(4-methylpiperazin-1-yl)phenyl)quinolin-4-amine]		MAPKAPK2			PRAK		C-TAK1
CN1CCN(c2ccc(Nc3ccnc4ccc(-c5ccco5)cc34)cc2)CC1 [6-(furan-2-yl)-N-(4-(4-methylpiperazin-1-yl)phenyl)quinolin-4-amine]		MAPKAPK2			PRAK	CHEK2	
COc1ccc(-c2ccc3nccc(Nc4ccc(N5CCN(CCN(C)C)CC5)cc4)c3c2)cc1 [N-(4-(4-(2-(dimethylamino)ethyl)piperazin-1-yl)phenyl)-6-(4-methoxyphenyl)quinolin-4-amine]	DYRK2	MAPKAPK2					C-TAK1
CC(C)N1CCN(c2ccc(Nc3ccnc4ccc(-c5ccccc5)cc34)cc2)CC1 [N-(4-(4-isopropylpiperazin-1-yl)phenyl)-6-phenylquinolin-4-amine]		MAPKAPK2	KIT				
Cc1csc(-c2ccc3nccc(Nc4ccc(N5CCN(C)CC5)cc4)c3c2)c1 [N-(4-(4-methylpiperazin-1-yl)phenyl)-6-(4-methylthiophen-2-yl)quinolin-4-amine]		MAPKAPK2		NEK2	PRAK	CHEK2	
CN1CCN(c2ccc(Nc3ccnc4ccc(-c5ccc(Oc6ccccc6)cc5)cc34)cc2)CC1 [N-(4-(4-methylpiperazin-1-yl)phenyl)-6-(4-phenoxyphenyl)quinolin-4-amine]		MAPKAPK2			PRAK		C-TAK1
C=Cc1ccc(-c2ccc3nccc(Nc4ccc(N5CCN(C)CC5)cc4)c3c2)cc1 [N-(4-(4-methylpiperazin-1-yl)phenyl)-6-(4-vinylphenyl)quinolin-4-amine]		MAPKAPK2		NEK2	PRAK	CHEK2	
